In patent US12729194B2, “Compounds for the treatment of human immunodeficiency virus” (priority 2019, dated 2026):

Columns and labels:
[1] = test system: VLP HIV-1AD8 Env; assay: Antibody recognition of VLP-associated Env
Procedure: Characterization of VLP-associated Env: To prepare VLPs with HIV-1AD8 Env, 150-mm dishes of 30-40% confluent A549-Gag/Env cells were seeded and, on the following day, treated with 2 μg/ml doxycycline. Approximately 72 hours after induction, cell supernatants were harvested and cleared by low-speed centrifugation (500×g for 15 minutes at 4° C.) and 0.45-μ filtration. VLPs were pelleted by centrifugation at 100,000×g for one hour at 4° C. The resuspended VLP preparation was clarified by low-speed centrifugation. BMS-806 and compounds described herein were added to the clarified VLP-containing suspensions. In some cases, the VLP-compound mixtures were irradiated with a 100-watt, 365-nm ultraviolet (UV) lamp for 10 minutes at room temperature. For all UV studies, exposure of the samples to visible light was minimized.
For studies of the binding of ligands (antibodies, CD4-Ig and C34-Ig) to detergent-solubilized VLP Env, VLPs prepared as described above were pelleted (20,000×g for 30 minutes at 4° C.). The pellet was incubated with 1.5% Triton X-100 for 30 minutes at 4° C. The VLP lysates were centrifuged (20,000×g for 30 minutes at 4° C.) and the supernatants were incubated with ligands (10 μg/ml) in a 50-μl volume with 25 mg/ml of Protein A-Sepharose beads for one hour at 4° C. The beads were pelleted (1000 rpm for 1 minute at room temperature), washed three times with 1 ml wash buffer with 1% Triton X-100, suspended in LDS Sample Buffer and analyzed by Western blot, as described above.
In a second assay format, the effect of the compounds was analyzed on the binding of antibodies to Env on intact VLPs, in the absence of detergent. In this case, VLPs in A549-Gag/Env supernatants, clarified as described above, were pelleted at 100,000×g for one hour at 4° C. The pellet was resuspended in PBS and the VLPs pelleted at 20,000×g for 30 minutes at 4° C. The VLPs were resuspended in PBS and incubated with antibodies (10 μg/ml) in a 100-μl volume for one hour at 4° C. The VLPs were then pelleted (20,000×g for 30 minutes at 4° C.) and washed with PBS three times. The VLP pellet was then solubilized in 1.5% Triton X-100 for 30 minutes at 4° C., after which the VLP lysates were clarified by centrifugation at 20,000×g for 30 minutes at 4° C. The supernatants were incubated with 50 μl of Protein A-Sepharose beads for one hour at 4° C. The beads were pelleted (1000 rpm for 1 minute at room temperature), washed three times with 1 ml wash buffer with 1% Triton X-100, suspended in LDS Sample Buffer, and analyzed by Western blot, as described above.

[2] = test system: HIV-1 with HIV-1JR-FL Env; assay: microbe, parasite or virus in culture; format: cell-based; conditions: Human immunodeficiency virus 1; Cf2Th-CD4/CCR5 target cells, 48 hours, luciferase; means and standard errors of four experiments; read-out: 50% inhibitory concentration (IC50), JR-FL
[3] = test system: monomeric soluble HIV-1AD8 gp120; assay: Antibody recognition of monomeric gp120; format: binding; conditions: 10 μM; CD4-Ig, CD4BS bNAbs, 17b
Procedure: Antibody recognition of monomeric gp120: To produce gp120 monomers, a stop codon was introduced into the HIV-1AD8 env gene sequence encoding the gp120-gp4l junction. […] The supernatants were clarified by low-speed centrifugation and 0.45-μ filtration, and then used for precipitation by antibodies in the absence or presence of 10 μM BMS-806. Precipitates were Western blotted with a goat anti-gp120 polyclonal antibody (ThermoFisher) and 1:3000 HRP-conjugated rabbit anti-goat IgG antibody (ThermoFisher).

[4] = test system: cell-surface HIV-1AD8 Env; assay: Recognition of cell-surface Env by C34-Ig and CD4-Ig; format: cell-based
Procedure: Immunoprecipitation of cell-surface Env: Doxycycline-induced A549-Env cells were washed twice with washing buffer (1×PBS+5% FBS), with or without 10 μM BMS-806 or compounds described herein. The cells were then incubated with 5 μg/ml antibody for one hour at 4° C. in the continued presence or absence of the compounds described herein. After washing four times in washing buffer, the cells were lysed in NP-40 lysis buffer (0.5% NP-40, 0.5 M NaCl, 10 mM Tris, pH 7.5) for five minutes at 4° C. with gentle agitation. Unless specifically indicated otherwise, compounds described herein were not added to the NP-40 lysis buffer. The lysates were cleared by centrifugation at 13,200×g for 20 minutes at 4° C., and the clarified supernatants were incubated with Protein A-Sepharose beads (50 μl of 25 mg/ml in PBS per sample) for one hour at room temperature. The beads were pelleted (1000 rpm×1 min) and washed three times with final wash buffer (200 mM Tris-HCl, pH 8.0, 100 mM (NH4)2SO4, 1 M NaCl and 0.1% NP-40). The beads were suspended in LDS sample buffer, boiled and analyzed by Western blotting using 1:2000 goat anti-gp120 polyclonal antibody (ThermoFisher) and 1:2000 HRP-conjugated rabbit anti-goat IgG (ThermoFisher). The transmembrane Env was analyzed by Western blot with the 4E10 anti-gp41 antibody and HRP-conjugated goat anti-human IgG (Santa Cruz).
The effect of BMS-806 on the recognition of the cell-surface HIV-1AD8 Env by CD4-Ig and C34-Ig was evaluated. CD4-Ig is a soluble CD4-immunoglobulin fusion protein, and C34-Ig contains the gp41 HR2 region fused to an immunoglobulin Fc. C34-Ig efficiently recognized the cell-surface Env only after incubation with soluble CD4 (sCD4) (FIG. 1C, left panel). BMS-806 blocked C34-Ig recognition of Env in the presence of sCD4.

| SMILES | VLP Env recognition by poorly neutralizing antibodies two weeks after treatment ([1]; compound plus UV irradiation, washed, two weeks without compound) | VLP Env recognition by bNAbs two weeks after treatment ([1]; compound plus UV irradiation, PG9, PGT145, PGT151, 35022, 2F5, 4E10, 10E8) | IC50 [2] [nM] | Ligand binding to monomeric gp120 [3] | CD4-Ig binding to the gp120 and gp160 Envs ([4]; 500 nM) | C34-Ig binding to Env ([4]; 500 nM, with sCD4) | CD4-Ig recognition of Env ([4]; 10 μM) | Recognition of VLP Env by poorly neutralizing antibodies [1] | Recognition of mature VLP gp120 Env by quaternary-epitope bNAbs ([1]; PG9, PG16, PGT145, PGT151, 35O22) |
| --- | --- | --- | --- | --- | --- | --- | --- | --- | --- |
| COc1ccc(-c2ccc(CNC(=O)c3c(F)c(F)c(N=[N+]=[N-])c(F)c3F)o2)c2[nH]cc(C(=O)C(=O)N3CCN(C(=O)c4ccccc4)CC3)c12 [AEG-II-168] | lowered Env recognition by poorly neutralizing antibodies | increased recognition by several bNAbs | 1.5 | – | – | – | – | – | – |
| COc1ccnc2[nH]cc(C(=O)C(=O)N3CCN(C(=O)c4ccccc4)C[C@H]3C)c12 [BMS-806, reference compound] | – | – | 1.6 | mildly decreased gp120 binding | still detected | inhibited almost completely | inhibited CD4-Ig recognition of the gp120 glycoprotein on the mature Env, but not the uncleaved gp160 Env | reduced recognition of the uncleaved Env | enhanced the recognition of the mature gp120 Env |
